How the values were obtained:
[1] = singlet oxygen efficiency test, reference rose bengal; type: physicochemical
[2] = absorption spectrum (maximum absorption wavelength, molar extinction coefficient); type: physicochemical

| Structure (SMILES) | singlet oxygen yield [1] [%] | maximum absorption wavelength [2] [nm] | molar extinction coefficient [2] |
| --- | --- | --- | --- |
| COc1c(O)c2c(=O)cc(OC)c3c4c(OC)cc(=O)c5c(NC6CCCC6C(=O)O)c(NC6CCCC6C(=O)O)c6c(c(c1C(C(C)=O)C(C)=C6)c23)c54 (stereo not drawn) [HB-21a] | 20 | 620 | 23,500 M^−1cm^−1 |
| COCCOCCOCCOCCOCCOCCOCCN1CCC(CNc2c(O)c3c(=O)cc(OC)c4c5c(OC)cc(=O)c6c(NCC7CCN(CCOCCOCCOCCOCCOCCOCCOC)CC7)c(OC)c7c(c(c2C=C(C)C7C(C)=O)c34)c65)CC1 (stereo not drawn) [HB-32b-PEG6] | 38 | 622 | 31,000 M^−1cm^−1 |
| COCCOC(=O)C1CCCCC1Nc1c(NC2CCCCC2C(=O)OCCOC)c2c(=O)cc(OC)c3c4c(OC)cc(=O)c5c(O)c(OC)c6c(c(c1C=C(C)C6C(C)=O)c23)c54 (stereo not drawn) [HB-16a-PEG1] | 32 | 624 | 30,500 M^−1cm^−1 |
| COCCOCCN1C(=O)CN(C(=O)OCCNc2c(NCCOC(=O)N3CC(=O)N(CCOCCOC)C(=O)C3)c3c(=O)cc(OC)c4c5c(OC)cc(=O)c6c(O)c(OC)c7c(c(c2C=C(C)C7C(C)=O)c34)c65)CC1=O (stereo not drawn) [HB-40a-PEG1] | 32 | 624 | 31,500 M^−1cm^−1 |
| COCCOCCOCCOCCOCCOCCOC(=O)C1CCCC(Nc2c3c4c5c(c(OC)c(=O)c6c(NC7CCCC(C(=O)OCCOCCOCCOCCOCCOCCOC)C7)cc(OC)c(c7c(OC)cc(O)c(c2=O)c74)c65)C(C(C)=O)C(C)=C3)C1 (stereo not drawn) [HB-15d-PEG6] | 32 | 630 | 32,500 M^−1cm^−1 |
| COC(=O)C1CCC(CNc2c(O)c3c(=O)cc(OC)c4c5c(OC)cc(=O)c6c(NCC7CCC(C(=O)OC)CC7)c(OC)c7c(c(c2C=C(C)C7C(C)=O)c34)c65)CC1 (stereo not drawn) [HB-13b-AcE] | 24 | 623 | 27,000 M^−1cm^−1 |
| COc1c2c3c4c(c(NCC[N+]56CC[N+](C)(CC5)CC6)c(=O)c5c(NCC[N+]67CC[N+](C)(CC6)CC7)cc(OC)c(c6c(OC)cc(O)c(c1=O)c63)c54)C=C(C)C2C(C)=O (stereo not drawn) [HB-41c] | 35 | 621 | 33,500 M^−1cm^−1 |
| COCCOCCOCCOCCOCCOCCOCCOCCOCCOCCOCCOCCOCCN1C(=O)CN(C(=O)OCCNc2c3c4c5c(c(OC)c(=O)c6c(NCCOC(=O)N7CC(=O)N(CCOCCOCCOCCOCCOCCOCCOCCOCCOCCOCCOCCOCCOC)C(=O)C7)cc(OC)c(c7c(OC)cc(O)c(c2=O)c74)c65)C(C(C)=O)C(C)=C3)CC1=O (stereo not drawn) [HB-40d-PEG12] | 30 | 628 | 30,500 M^−1cm^−1 |
| COCCOCCOCCOCCOCCOCCOCCC(=O)N1CCC(CNc2c3c4c5c(c(OC)c(=O)c6c(O)cc(OC)c(c7c(OC)cc(NCC8CCN(C(=O)CCOCCOCCOCCOCCOCCOCCOC)CC8)c(c2=O)c74)c65)C(C(C)=O)C(C)=C3)CC1 (stereo not drawn) [HB-31c-PEG6] | 40 | 632 | 33,500 M^−1cm^−1 |
| COC(=O)C(CO)Nc1c(NC(CO)C(=O)OC)c2c(=O)cc(OC)c3c4c(OC)cc(=O)c5c(O)c(OC)c6c(c(c1C=C(C)C6C(C)=O)c23)c54 (stereo not drawn) [HB-24a] | 20 | 625 | 20,500 M^−1cm^−1 |
| COc1c(O)c2c(=O)cc(OC)c3c4c(OC)cc(=O)c5c(NCCOC(=O)N6CC(=O)NC(=O)C6)c(NCCOC(=O)N6CC(=O)NC(=O)C6)c6c(c(c1C(C(C)=O)C(C)=C6)c23)c54 (stereo not drawn) [HB-40a] | 30 | 620 | 31,000 M^−1cm^−1 |
| COC(=O)C1CCC(CNc2c3c4c5c(c(OC)c(=O)c6c(NCC7CCC(C(=O)OC)CC7)cc(OC)c(c7c(OC)cc(O)c(c2=O)c74)c65)C(C(C)=O)C(C)=C3)CC1 (stereo not drawn) [HB-13d-AcE] | 25 | 623 | 28,000 M^−1cm^−1 |
| CCNNc1c(NNCC)c2c(=O)cc(OC)c3c4c(OC)cc(=O)c5c(O)c(OC)c6c(c(c1C=C(C)C6C(C)=O)c23)c54 (stereo not drawn) [HB-36a] | 32 | 621 | 30,500 M^−1cm^−1 |
| COc1c(NCC2CCC(C(=O)OCCCC[N+](C)(C)C)CC2)c2c(=O)cc(OC)c3c4c(OC)cc(=O)c5c(O)c(NCC6CCC(C(=O)OCCCC[N+](C)(C)C)CC6)c6c(c(c1CC(C)=C6)c23)c54 (stereo not drawn) [HC-13b-C4-N^+] | 36 | 624 | 31,500 M^−1cm^−1 |
| COc1c2c3c4c(c(NCCSCCOCCO)c(=O)c5c(O)cc(OC)c(c6c(OC)cc(NCCSCCOCCO)c(c1=O)c63)c54)C=C(C)C2C(C)=O (stereo not drawn) [HB-6d-PEG1] | 32 | 625 | 30,500 M^−1cm^−1 |
| COCCOCCOCCOCCOCCOCCOCCC(=O)OCCOCCNc1c(O)c2c(=O)cc(OC)c3c4c(OC)cc(=O)c5c(NCCOCCOC(=O)CCOCCOCCOCCOCCOCCOCCOC)c(OC)c6c(c(c1C=C(C)C6)c23)c54 [HC-1b-PEG6] | 30 | 624 | 30,000 M^−1cm^−1 |

| Structure (SMILES) | singlet oxygen yield [1] [%] | maximum absorption wavelength [2] [nm] | molar extinction coefficient [2] |
| --- | --- | --- | --- |
| COc1c2c3c4c(c(NCC5CCC(C(=O)NCCCCS(=O)(=O)O)CC5)c(=O)c5c(O)cc(OC)c(c6c(OC)cc(NCC7CCC(C(=O)NCCCCS(=O)(=O)O)CC7)c(c1=O)c63)c54)C=C(C)C2 (stereo not drawn) [HC-13d-C4-SO3H] | 30 | 624 | 31,000 M^−1cm^−1 |
| COCCOCCOCCOCCOCCOCCOCCN1CCC(CNc2c3c4c5c(c(OC)c(=O)c6c(O)cc(OC)c(c7c(OC)cc(NCC8CCN(CCOCCOCCOCCOCCOCCOCCOC)CC8)c(c2=O)c74)c65)C(C(C)=O)C(C)=C3)CC1 (stereo not drawn) [HB-32c-PEG6] | 40 | 632 | 33,500 M^−1cm^−1 |
| COc1c(NC(CCC(=O)O)C(=O)O)c2c(=O)cc(OC)c3c4c(OC)cc(=O)c5c(O)c(NC(CCC(=O)O)C(=O)O)c6c(c(c1C(C(C)=O)C(C)=C6)c23)c54 (stereo not drawn) [HB-28b] | 19 | 620 | 21,000 M^−1cm^−1 |
| COc1c(NCCS(=O)(=O)OC)c2c(=O)cc(OC)c3c4c(OC)cc(=O)c5c(O)c(NCCS(=O)(=O)OC)c6c(c(c1C(C(C)=O)C(C)=C6)c23)c54 (stereo not drawn) [HB-12b] | 22 | 621 | 22,500 M^−1cm^−1 |
| COc1c2c3c4c(c(NCc5cccc[n+]5CCCC(=O)O)c(=O)c5c(NCc6cccc[n+]6CCCC(=O)O)cc(OC)c(c6c(OC)cc(O)c(c1=O)c63)c54)C=C(C)C2C(C)=O (stereo not drawn) [HB-38c-N—COOH] | 21 | 622 | 21,500 M^−1cm^−1 |
| COc1c(NCC2CCC(C(=O)NCCCC[P+](c3ccccc3)(c3ccccc3)c3ccccc3)CC2)c2c(=O)cc(OC)c3c4c(OC)cc(=O)c5c(O)c(NCC6CCC(C(=O)NCCCC[P+](c7ccccc7)(c7ccccc7)c7ccccc7)CC6)c6c(c(c1CC(C)=C6)c23)c54 (stereo not drawn) [HC-13b-NH—C4-PPh3+] | 34 | 626 | 30,500 M^−1cm^−1 |
| COc1c(NO)c2c(=O)cc(OC)c3c4c(OC)cc(=O)c5c(O)c(NO)c6c(c(c1CC(C)=C6)c23)c54 [HC-37b] | 31 | 622 | 31,500 M^−1cm^−1 |
| COCCOCCNC(=O)C1CCC(CNc2c(NCC3CCC(C(=O)NCCOCCOC)CC3)c3c(=O)cc(OC)c4c5c(OC)cc(=O)c6c(O)c(OC)c7c(c(c2C=C(C)C7C(C)=O)c34)c65)CC1 (stereo not drawn) [HB-13a-NH-PEG1] | 32 | 624 | 31,000 M^−1cm^−1 |
| COCCOC(=O)CCCNc1c(NCCCC(=O)OCCOC)c2c(=O)cc(OC)c3c4c(OC)cc(=O)c5c(O)c(OC)c6c(c(c1C=C(C)C6C(C)=O)c23)c54 (stereo not drawn) [HB-8a-PEG1] | 28 | 621 | 30,500 M^−1cm^−1 |
| CCCCCCNc1c(O)c2c(=O)cc(OC)c3c4c(OC)cc(=O)c5c(NCCCCCC)c(OC)c6c(c(c1C=C(C)C6)c23)c54 [HC-34b] | 32 | 620 | 31,500 M^−1cm^−1 |
| COCCOCCNC(=O)CCNc1c(NCCC(=O)NCCOCCOC)c2c(=O)cc(OC)c3c4c(OC)cc(=O)c5c(O)c(OC)c6c(c(c1C=C(C)C6C(C)=O)c23)c54 (stereo not drawn) [HB-10a-NH-PEG1] | 30 | 621 | 31,500 M^−1cm^−1 |
| COc1c2c3c4c(c(NC5CCCC(C(=O)O)C5)c(=O)c5c(O)cc(OC)c(c6c(OC)cc(NC7CCCC(C(=O)O)C7)c(c1=O)c63)c54)C=C(C)C2C(C)=O (stereo not drawn) [HB-15d] | 24 | 623 | 27,000 M^−1cm^−1 |
| COc1c2c3c4c(c(NCC5CCC(C(=O)NCCCC[P+](c6ccccc6)(c6ccccc6)c6ccccc6)CC5)c(=O)c5c(O)cc(OC)c(c6c(OC)cc(NCC7CCC(C(=O)NCCCC[P+](c8ccccc8)(c8ccccc8)c8ccccc8)CC7)c(c1=O)c63)c54)C=C(C)C2 (stereo not drawn) [HC-13d-NH—C4-PPh3+] | 30 | 618 | 31,500 M^−1cm^−1 |
| COCCOCCOCCOCCOCCOCCOCCOCCOCCOCCOCCOCCOC(=O)CCCNc1c2c3c4c(c(OC)c(=O)c5c(O)cc(OC)c(c6c(OC)cc(NCCCC(=O)OCCOCCOCCOCCOCCOCCOCCOCCOCCOCCOCCOCCOC)c(c1=O)c63)c54)C(C(C)=O)C(C)=C2 (stereo not drawn) [HB-8c-PEG12] | 36 | 628 | 33,000 M^−1cm^−1 |
| COc1c2c3c4c(c(NCCCC(=O)O)c(=O)c5c(O)cc(OC)c(c6c(OC)cc(NCCCC(=O)O)c(c1=O)c63)c54)C=C(C)C2C(C)=O (stereo not drawn) [HB-8d] | 26 | 624 | 29,000 M^−1cm^−1 |

From US11439707B2, “Hypocrellin derivative substituted both in a peri-position and in 2-position by amino, preparation method, and application thereof” (priority 2017, dated 2022)
